# According to PubChem BioAssay (NCI):
# Values joined by “and” are separate entries in the source; they are usually repeats but may differ in a detail not shown here. Equal entries are not always repeated.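 Where inhibition never reached the appropriate level, the endpoint shown equals the highest concentration tested. Otherwise, values were interpolated linearly from a five-concentration, 48-hour dose response in 96-well plates. Abbreviation: GI50, concentration required for 50% inhibition of growth. At the TGI there is no net growth.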
# What was measured:
# Test in all cases: growth of human tumour cells (NCI), 48 h
# A549 NSCLC = system: A549 NSCLC
# COLO 205 colon = system: COLO 205 colon
# K-562 leukemia = system: K-562 leukemia
# MDA-MB-435 = system: MDA-MB-435
# NCI/ADR-RES ovarian = system: NCI/ADR-RES ovarian
# OVCAR-3 ovarian = system: OVCAR-3 ovarian
# PC-3 prostate = system: PC-3 prostate
# T-47D breast = system: T-47D breast
# DU-145 prostate = system: DU-145 prostate
# RPMI-8226 leukemia = system: RPMI-8226 leukemia
Compound,GI50 (A549 NSCLC),TGI (A549 NSCLC),GI50 (COLO 205 colon),TGI (COLO 205 colon),GI50 (K-562 leukemia),TGI (K-562 leukemia),GI50 (MDA-MB-435),TGI (MDA-MB-435),GI50 (NCI/ADR-RES ovarian),TGI (NCI/ADR-RES ovarian),GI50 (OVCAR-3 ovarian),TGI (OVCAR-3 ovarian),GI50 (PC-3 prostate),TGI (PC-3 prostate),GI50 (T-47D breast),TGI (T-47D breast),GI50 (DU-145 prostate),TGI (RPMI-8226 leukemia),TGI (DU-145 prostate),GI50 (RPMI-8226 leukemia)
O=C(O)c1ccc(NCn2nc(-c3ccccc3O)oc2=S)cc1O,> 100 µM,> 100 µM,42.6 µM,> 100 µM,> 100 µM,> 100 µM,> 100 µM,> 100 µM,> 100 µM,> 100 µM,> 100 µM,> 100 µM,86.6 µM,> 100 µM,> 100 µM,> 100 µM,,,,
CC[C@@]1(O)C(=O)OCc2c1cc1n(c2=O)Cc2cc3c(OC)cccc3nc2-1,,7.59 µM,,5.25 µM,,17.8 µM,,,,> 100 µM,0.0434 µM,1.21 µM,,> 100 µM,> 100 µM,> 100 µM,0.00266 µM,1.81 µM,,
S=C1NC(c2ccccc2)=NC(Cc2ccccc2)(c2ccccc2)N1c1ccccc1 (stereo unspecified),,> 100 µM,,> 100 µM,,> 100 µM,,,,,,> 100 µM,,,,,,> 100 µM,,
Cc1cn2c(/C=N/NC3=NCCN3)c(-c3ccc(Cl)c([N+](=O)[O-])c3)nc2s1,,,1.43 µM,> 50 µM,1.08 µM,2.34 µM,,,7.75 µM,21.5 µM,,,1.65 µM,4.56 µM,1.75 µM,> 50 µM,0.789 µM,> 50 µM,1.89 µM,1.27 µM
COC1OC(CO)C(O)C(NC(=O)N(C)N=O)C1O (stereo unspecified),,> 100 µM,,> 100 µM,,> 100 µM,,,,,,> 100 µM,,,,,,> 100 µM,,
CC(=O)NS(=O)(=O)c1ccc(-n2nc(-c3ccccc3)cc2-c2cc(O)ccc2O)cc1,> 100 µM,> 100 µM,44 µM,> 100 µM,> 100 µM,> 100 µM,> 100 µM,> 100 µM,> 100 µM,> 100 µM,> 100 µM,> 100 µM,> 100 µM,> 100 µM,> 100 µM,> 100 µM,,> 100 µM,,> 100 µM
OCC(O)COc1ccc(F)cc1 (stereo unspecified),,> 100 µM,,> 100 µM,,> 100 µM,,,,,,> 100 µM,,,,,,,,
C#CCOCCCC(=O)O,,> 100 µM,,> 100 µM,,> 100 µM,,,,> 100 µM,,> 100 µM,,> 100 µM,,> 100 µM,,> 100 µM,> 100 µM,
O=C(Cc1c(C(=O)Nc2ccccc2)sc(C(=O)Nc2ccccc2)c1CC(=O)Nc1ccccc1)Nc1ccccc1,,> 100 µM,,> 100 µM,,> 100 µM,,,,,,> 100 µM,,,,,,> 100 µM,,
CC(=O)OC1C(COC(N)=O)OC(n2c(-c3ccc(C)cc3)cc(-c3ccccc3)c(C#N)c2=O)C(OC(C)=O)C1OC(C)=O (stereo unspecified),,> 100 µM,,> 100 µM,,> 100 µM,,,,,,> 100 µM,,,,,,> 100 µM,,
CSc1nc(SC)c2c(C)cn(Cc3ccccc3)c2n1,,> 100 µM,,> 100 µM,,,,> 100 µM,,> 100 µM,,> 100 µM,,> 100 µM,,> 100 µM,,> 100 µM,> 100 µM,
O=C1C2=C(c3ccccc31)C(c1ccccc1Cl)NC(=S)N2 (stereo unspecified),,> 100 µM,,> 100 µM,,> 100 µM,,,,,,> 100 µM,,,,,,> 100 µM,,
C=CCC1=C2CCCCC2CCC1=O (stereo unspecified),,> 100 µM,,> 100 µM,,> 100 µM,,,,,,> 100 µM,,,,,,> 100 µM,,
O=C(O)COc1ccc2c3c1C(=O)CCC3CO2 (stereo unspecified),,> 100 µM,,> 100 µM,,> 100 µM,,,,,,> 100 µM,,,,,,> 100 µM,,
CCOC(=O)c1sc(Nc2cc(Cl)ccc2Cl)nc1C,,> 100 µM,,> 100 µM,,> 100 µM,,,,,,> 100 µM,,,,,,> 100 µM,,
O=P1(O)c2ccccc2CSCc2ccccc21,,> 100 µM,,> 100 µM,,> 100 µM,,> 100 µM,,> 100 µM,,> 100 µM,,> 100 µM,,> 100 µM,,,> 100 µM,
COC(=O)C(=O)C(C(=O)C(=O)Nc1ccccc1C(N)=O)c1nc2ccc([N+](=O)[O-])cc2[nH]c1=O (stereo unspecified),,> 100 µM,,> 100 µM,,> 100 µM,,,,,,,,,,,,> 100 µM,,
CCCCN(CCCC)C(=O)C(=O)C(C(=O)C(=O)OC)c1nc2ccccc2o1 (stereo unspecified),,> 100 µM,,> 100 µM,,> 100 µM,,,,,,> 100 µM,,,,,,,,
Cn1cnc([N+](=O)[O-])c1Sc1nccn1-c1ccccc1,,> 100 µM,,> 100 µM,,> 100 µM,,,,,,> 100 µM,,,,,,> 100 µM,,
COC(=O)c1oc([N+](=O)[O-])c(-c2ccccc2)c1-c1ccccc1,,> 100 µM,,> 100 µM,,> 100 µM,,,,,,> 100 µM,,,,,,> 100 µM,,
Cc1cc2c(=O)cc(-c3ccc(Cl)c(Cl)c3)oc2c(C(=O)O)c1C,,> 100 µM,,> 100 µM,,> 100 µM,,,,,,> 100 µM,,,,,,> 100 µM,,
Cc1cc2c(cc1C)[n+](=O)c(C(=O)CC(=O)C(=O)Nc1ccccc1C)c(C)n2[O-],,> 100 µM,,> 100 µM,,> 100 µM,,,,,,> 100 µM,,,,,,> 100 µM,,
COC(=O)CC12CC(NC(=O)c3csc([C@@H](C[C@H](C(C)C)N(C)C(=O)[C@@H](NC(=O)[C@H]4CCCCN4C)C(C)C)OC(C)=O)n3)(C1)C2,0.00777 µM and 0.013 µM,> 33.3 µM,0.0027 µM and 0.00684 µM,0.00961 µM and 0.0401 µM,0.00194 µM and 0.00333 µM,> 33.3 µM,0.000341 µM and 0.00333 µM,0.00165 µM and 0.00449 µM,0.0659 µM and 0.122 µM,,0.0029 µM and 0.00333 µM,,0.00396 µM and 0.0101 µM,> 33.3 µM,,,0.00352 µM and 0.00825 µM,> 33.3 µM,,0.00351 µM and 0.0129 µM
O=C([CH-]C(=O)c1ccccc1)c1ccccc1.O=C([CH-]C(=O)c1ccccc1)c1ccccc1.[CH2-]CCC.[CH2-]CCC.[Sn+4],1.82 µM,4.12 µM,0.31 µM,1.23 µM,0.15 µM,0.746 µM,,,,,0.758 µM,2.13 µM,,,,,,0.334 µM,,0.11 µM
CN(CCNc1ccc(C(=N)N)cc1)c1ccc(C(=N)N)cc1,0.249 µM,> 100 µM,17 µM,41.1 µM,27.6 µM,> 100 µM,66.3 µM,> 100 µM,63.6 µM,> 100 µM,37.3 µM,> 100 µM,53 µM,> 100 µM,23.9 µM,> 100 µM,19.2 µM,,> 100 µM,
